Data from patent US20200115353A1, “NEW COMPOUNDS INHIBITORS OF THE YAP/TAZ-TEAD INTERACTION AND THEIR USE IN THE TREATMENT OF MALIGNANT MESOTHELIOMA” (INVENTIVA, priority 2017, published 2020).

How the values were obtained:
[1] = biological target: T1, YAP-TEAD interaction (full length human TEAD1-Gal4 fusion, full length YAP mutant S127A, S397A) (UniProt P04386+P28347); assay: Cell-based TEAD-GAL4 transactivation assay (luciferase reporter, HEK293); settings: HEK293 cells, compounds 0.1 μM to 30 μM, 24 h, concentration that inhibited the luciferase activity by 50%
T1 construct: The TEAD1 construct was prepared by cloning the full length human TEAD1 cDNA; expressed in transfected cells; host or cells: HEK293 GripTite 293 MSR (Invitrogen R795-07), transiently transfected with pSG5_CMV plasmids
Procedure: To identify inhibitors of YAP-TEAD interaction, a transient transactivation assays was carried out into HEK293 cell line (HEK293 GripTite™ 293 MSR (Invitrogen R795-07)) using plasmids containing the full length TEAD1 sequences, the full length YAP mutant (S127A, S397A) and a luciferase gene reporter. All expression constructs were performed into pSG5 backbone plasmid in which the SV40 promoter was replaced by the CMV promoter. The TEAD1 construct was prepared by cloning the full length human TEAD1 cDNA in fusion with the Gal4 DNA Binding Domain (AA 1-148) into pSG5_CMV to create the TEAD1(FL)_hum_pSG5Gal4_CMV. The full length YAP mutant (S127A, S397A) was also cloned into pSG_5 CMV to create the YAP(FL)_hum_pSG5_[…]. The reporter plasmid GAL4(5×RE)_[…]_pGL3-Basic contains 5 copies of the GAL4 responsive element (5′-TCGGAGGACAGTACTCC-3′) upstream of the thymidine kinase (TK) promoter (−105/+56) inserted in a pGL3-Basic vector. To evaluate the selectivity of our compounds in blocking the YAP-TEAD interaction, a counter-screening protein-protein interaction transactivation assays was also established. Briefly, two other expression plasmids, the pBD-P53 which express the P53 (AA 72-390) in fusion with Gal4 and the pAD-SV40T which express the SV40 large T antigen (AA 84-708,AgT), were created. HEK293 cells were seeded at 5×10^4 cells/well in 96 well plates (assay plates) in DMEM medium containing 4.5 g/L D-glucose, 10% high inactivated (HI) fetal bovine serum 1% Glutamax, 1% non-essential amino acid and 1% sodium pyruvate and 0.5% penicillin/streptomycin 37° C. in a humidified atmosphere of 8% CO2. After 24 h, transfections are performed using Jet-PEI as transfectant (101B-010 Polyplus Transfection), according to the instructions of the manufacturer (N/P=10) and a ratio YAP/TEAD=10 (per well: 50 ng of YAP(FL), 5 ng of TEAD(FL) and 50 ng of reporter plasmid). Six hours after cell transfection, the plates (‘assay plate’) were washed with 100 μl PBS per well and cell were treated with compounds in semi-log from 0.1 μM to 30 μM or DMSO 0.5% as control in DMEM 4.5 g/L D-Glucose without phenol red, 0.3% BSA, 1% glutamax, 1% NEAA, 1% sodium pyruvate. Twenty-four hours later, the luciferase activity was determined after addition of 100 μl of Steady Glo™ luciferase assay system (Promega E2550) according to the manufacturer's directions. Luciferase activity in cell extracts is measured by reading luminescence using the Envision device.
The cellular response was determined by fitting the concentration response curves using a 3-parameter curve fit equation and determining the concentration that inhibited the luciferase activity by 50%.

[2] = tested on: NCI-H2052 mesothelioma cell line; assay: Inhibition of malignant mesothelioma tumor cell growth (EdU proliferation); format: cell-based; settings: NF2 mutated cell line, 0.1-30 μM, FIG. 1
Procedure: (§1) The tumor cell growth inhibitory activity of the YAP-TEAD interaction inhibitors was evaluated in NCI-H2052 mesothelioma cell line harboring a NF2 mutation. This cell line was selected based on its mutational status and the ability of a siRNA directed against YAP, TAZ or TEAD1-4 to inhibit cell proliferation. The nuclear localization of YAP at confluence was also taken into account. Based on these observations we were able to classify several “YAP dependent cells” where YAP is clearly nuclear and in which a cell growth inhibition is observed by using siRNA (NCI-H2052, SKOV-3, ACHN, A549) and the “YAP independent cells” where YAP is preferentially located in the cytoplasm and in which no inhibition of cell growth is observed by using a siRNA (SW620, Met-5a). […] After one day growth in the starvation medium, cells were incubated with compounds. The starting concentration was 30 μM and serial dilutions in DMSO and medium were performed until 0.1 μM to achieve a final DMSO concentration of 0.5%. The cells were then allowed to grow for 3 days, and then, EdU (Invitrogen, Molecular Probe) was added in each well at a final concentration of 10 μM and the cells were returned to the incubator for additional 24 h. Starvation medium was removed and 100 μl of PFA 4% containing Hoechst dye was adding in each well to fix the cells. Plates were then incubated at rt for 15 minutes, washed twice with PBS and the cells were permeabilized by adding 100 μl per well of triton-100 containing 0.3% BSA. After 20 minutes cells were washed with PBS and the EdU detection was performed according to the instructions of the manufacturer. Image acquisition was performed using the ImageXpress Micro and analysed using the MetaXpress software (Molecular Device).
(§2) Results were expressed as a percent of inhibition (%) of the cell proliferation values obtained with 0.5% DMSO treatment alone. The cellular response was determined by fitting the concentration response curves using a 3 parameter curve fit equation and determining the concentration that inhibited cell growth between 50% and 100%.

Met5A cell line = assay: Cell proliferation in YAP-independent cell line (EdU); format: cell-based; settings: FIG. 1
Procedure: as §1, §2

T1 sequence (P04386+P28347 fused, stated change not applied): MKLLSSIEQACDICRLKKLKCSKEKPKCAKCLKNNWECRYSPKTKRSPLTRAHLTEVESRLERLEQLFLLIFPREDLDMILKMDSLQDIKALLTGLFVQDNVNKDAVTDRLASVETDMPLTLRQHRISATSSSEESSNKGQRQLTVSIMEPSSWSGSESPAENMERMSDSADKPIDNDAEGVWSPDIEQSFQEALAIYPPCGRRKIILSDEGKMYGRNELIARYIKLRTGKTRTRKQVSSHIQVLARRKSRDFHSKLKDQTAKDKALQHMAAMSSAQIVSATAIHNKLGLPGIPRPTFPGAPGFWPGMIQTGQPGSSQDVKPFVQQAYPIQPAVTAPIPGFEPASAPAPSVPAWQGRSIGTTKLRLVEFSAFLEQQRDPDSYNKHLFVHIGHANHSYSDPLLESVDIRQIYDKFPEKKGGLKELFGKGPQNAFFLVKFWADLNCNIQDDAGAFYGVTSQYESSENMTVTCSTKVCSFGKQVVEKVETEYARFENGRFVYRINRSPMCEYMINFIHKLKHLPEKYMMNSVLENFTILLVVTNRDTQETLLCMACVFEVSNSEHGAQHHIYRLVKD

Row | SMILES | melting point [°C] | IC50 [1] [µM] | NCI-H2052 mesothelioma cell proliferation [2] | effect on proliferation of Met5A cell line (Met5A cell line)
1 | CN(/N=C/c1ccc2[nH]c(=O)n(C3CCC3)c2c1)C1=NS(=O)(=O)c2ccccc21 [Ex 28, 3-cyclobutyl-5-[(E)-[(1,1-dioxo-1,2-benzothiazol-3-yl)-methyl-hydrazono]methyl]-1H-benzimidazol-2-one] |  | 3.06 | inhibited NCI-H2052 mesothelioma cell proliferation | without showing any effect
2 | COc1cc(/C=N/N(CCc2ccccc2)C2=NS(=O)(=O)c3ccccc32)ccc1F [Ex 46, N-[(E)-(4-fluoro-3-methoxy-phenyl)methyleneamino]-1,1-dioxo-N-(2-phenylethyl)-1,2-benzothiazol-3-amine] | 256 to 258 |  |  | 
3 | COc1cc(/C=N/N(C)C2=NS(=O)(=O)c3cc(B(O)O)ccc32)ccc1F [Ex 50, [3-[[(E)-(4-fluoro-3-methoxy-phenyl)methyleneamino]-methyl-amino]-1,1-dioxo-1,2-benzothiazol-6-yl]boronic acid] |  | 3.03 | inhibited NCI-H2052 mesothelioma cell proliferation | without showing any effect
4 | COc1cc(/C=N/N(C)C2=NS(=O)(=O)c3cc(O)ccc32)ccc1F [Ex 51, 3-[[(E)-(4-fluoro-3-methoxy-phenyl)methyleneamino]-methyl-amino]-1,1-dioxo-1,2-benzothiazol-6-ol] | 258 |  |  | 
5 | COCCOc1ccc2c(c1)C(N(C)/N=C/c1ccc(F)c(OC)c1)=NS2(=O)=O [Ex 56, N-[(E)-(4-fluoro-3-methoxy-phenyl)methyleneamino]-5-(2-methoxyethoxy)-N-methyl-1,1-dioxo-1,2-benzothiazol-3-amine] | 200 | 2.31 |  | 
6 | COc1cc(/C=N/N(C)C2=NS(=O)(=O)c3cc(B4OC(=O)CN(C)CC(=O)O4)ccc32)ccc1F [Ex 68, 2-[3-[[(E)-(4-fluoro-3-methoxy-phenyl)methyleneamino]-methyl-amino]-1,1-dioxo-1,2-benzothiazol-6-yl]-6-methyl-1,3,6,2-dioxazaborocane-4,8-dione] |  | 4.5 | inhibited NCI-H2052 mesothelioma cell proliferation | without showing any effect
7 | Cc1ncc(/C=N/N(C)C2=NS(=O)(=O)c3ccccc32)s1 [Ex 118, N-methyl-N-[(E)-(2-methylthiazol-5-yl)methyleneamino]-1,1-dioxo-1,2-benzothiazol-3-amine] | 248 | 3.97 |  | 

Further lines, with some results ahead:

Row | melting point [°C] | SMILES | IC50 [1] [µM] | NCI-H2052 mesothelioma cell proliferation [2] | effect on proliferation of Met5A cell line (Met5A cell line)
8 | 256 to 258 | CN(/N=C/c1cnc(N2CCC2)s1)C1=NS(=O)(=O)c2ccccc21 [Ex 61, N-[(E)-[2-(azetidin-1-yl)thiazol-5-yl]methyleneamino]-N-methyl-1,1-dioxo-1,2-benzothiazol-3-amine] |  |  | 
9 | 230 to 280 | CN(/N=C/c1ccc(F)c(OC(F)(F)F)c1)C1=NS(=O)(=O)c2ccccc21 [Ex 78, N-[(E)-[4-fluoro-3-(trifluoromethoxy)phenyl]methyleneamino]-N-methyl-1,1-dioxo-1,2-benzothiazol-3-amine] |  |  | 
10 | 289 to 291 | CCN(/N=C/c1ccc2c(c1)C(C)(C)NC2=O)C1=NS(=O)(=O)c2ccccc21 [Ex 85, 5-[(E)-[(1,1-dioxo-1,2-benzothiazol-3-yl)-ethyl-hydrazono]methyl]-3,3-dimethyl-isoindolin-1-one] |  |  | 
11 | 207 to 208 | COc1cc(/C=N/N(CC(C)(C)CO)C2=NS(=O)(=O)c3ccccc32)ccc1F [Ex 108, 3-[(1,1-dioxo-1,2-benzothiazol-3-yl)-[(E)-(4-fluoro-3-methoxy-phenyl)methyleneamino]amino]-2,2-dimethyl-propan-1-ol] |  |  | 
